Patent publication US8828928B2, “Amphiphilic peptides and peptide particles” (President and Fellows of Harvard College, priority 2011, dated 2014)

How the values were obtained:
[1] = Solubility of the peptides in water and organic solvents; assay type: physicochemical
[2] = Stability of nucleic acid-containing peptide particles in water and at physiological salt strength; assay type: physicochemical
Excerpt: It should be noted that a mixture of CD3 peptides and nucleic acid molecules can self-assemble to form stable particles in pure water; however, they are generally not stable and dissolve, responding to increasing salt strengths and higher temperatures.
Accordingly, in some embodiments, a mixture of fully-acetylated amphiphilic peptides (e.g., CD3ac peptides), partially-acetylated or non-acetylated amphiphilic peptides (e.g., CD3 peptides) and nucleic acid molecules can be prepared to form stable peptide particles containing nucleic acid molecules (e.g., DNA or RNA including siRNA). […] It was determined that the presence of CD3ac peptides stabilizes ssDNA-containing peptide particles at physiological conditions. All the three components co-precipitated to form ssDNA-containing peptide particles that were stable at the corresponding salt strength.

CHO cells = assay: Release of encapsulated Flutax-2 into the cytosol of CHO cells; assay type: cell-based, Chinese hamster; conditions: 24 hours, 0.67 μM Flutax-2
Protocol: To assess whether binding and internalization of PNPs can result in the selective import of small molecule cargo, the release of encapsulated Flutax-2 into cells was analyzed 24 hours post addition of PNPFlutax-2^Tfn-AF568 into the cells (FIGS. 13A-13I). Flutax-2 is an Oregon Green (OG) modified derivative of paclitaxel(19), a mitotic inhibitor applied in cancer therapy (20). Unlike its unlabeled form, Flutax-2 is charged and water-soluble at the applied concentration and does consequently not permeate cell membranes. Thus, it was used a model compound to investigate efficiency and specificity of small molecule delivery by PNPs to the cytosol. […] Flutax-2 emission in the cytosol was averaged to quantify the amount of delivered compound into the cells.
CHO cell lines were grown in F12:DMEM 1:1 (Cellgro, 10-090) plus 10% fetal bovine serum (Gibco). […] Samples were fixed with 3% paraformaldehyde (Sigma, P6148) in PBS, mounted on glass slides using fluorescent mounting medium (Dako, 53023) and analyzed within 24 hours.
Fixed cells were analyzed on a Nikon Ti inverted microscope equipped with 60× Plan Apo NA 1.4 objective lens. DAPI fluorescence was excited with a 360/40 filter and collected with a 460/50 emission filter. Oregon Green fluorescence was excited with a 360/40 and collected with a 480/40 emission filter. […]

[3] = Size of CD3ac beads by SEM and dynamic light scattering; assay type: physicochemical; conditions: SEM and DLS; initially dissolved CD3ac 123×10^−6 M
Protocol: Scanning electron microscopy (SEM) was carried out on a Hitachi S-4800. SEM sample holders were cooled to −196° C. before a drop of the bead suspension was directly applied to the cold metal surface. The frozen sample on the plate was subsequently lyophilized, sputtered with platinum and analyzed.
Dynamic light scattering was measured on an ALV/CGS-8F platform based goniometer system equipped with an ALV/-5000/E correlator and an Argon-Ion laser with a wavelength of […] (35 mW) at scattering angles between 30° and 150°. An ALV-5000/E correlator calculates the photon intensity autocorrelation function g2(t). All experiments were performed at T=293 K and evaluated by second order cumulant fit (considering previously determined spherical particle shape by SEM). Polydispersities were determined by the contin-algorithm at all angles and never exceeded 0.11. […] For both angular and concentration dependence, a hydrodynamic radius was calculated from the Stokes-formula
[formula] where rh is the hydrodynamic radius of spherical particles, D is the diffusion constant, kB is the Boltzmann constant, T is the absolute temperature and is the viscosity of water. A graph of 1/rh versus angle (concentration) was plotted and the hydrodynamic radius (rh0) was calculated by extrapolating both concentration and angle measurements to zero. […]

[4] = Estimating bead volume and density of CD3ac precipitates; assay type: physicochemical
Protocol: In order to estimate the density of CD3ac precipitates, beads (307.5×10^−6 M CD3ac starting concentration) were prepared large enough to exceed the diffraction limit of visible light. A low concentration of RB (10×10^−6 M) was co-precipitated to allow an estimate of the bead diameter by confocal fluorescence microscopy (1.35 μm) and facilitate counting on a hemacytometer (Hausser Scientific). An average of 72 beads were counted in an observed cell volume of 250,000 μm^3 that equals a bead volume fraction of 3.71×10^−4. A solution of 50 μL 307.5×10^−6M CD3ac thus contains a total bead volume of […] and the density of CD3ac can be determined (ρCD3ac≈1.35 g/cm^3). The logarithmic partition coefficient of RB in an aqueous solution of CD3ac beads was calculated according to […]

[5] = Particle diameter and corona thickness by negative staining TEM; assay type: physicochemical
Protocol: PNPs were assembled by mixing stock solutions of CD3ac, Tfn-AF568 and Flutax-2 to yield final concentrations of 123 μM CD3ac, 6 μM Flutax-2 and 10 μg/mL Tfn-AF568 in H2O:EtOH (1:1, v/v). Emulsification was induced by a first dilution step (1:1, H2O) followed by an equilibration period of 15 minutes before the ethanol content was further reduced to […] by the second dilution step (1:1, H2O). 50 μL aliquots of the resulting suspension were applied to 24-well sitting drop crystallization plates (Hampton Research, Cryschem) and counter-evaporated 3 times against 1 mL H2O during six hours.
PNP samples were prepared as described above. 5 μL of PNPs suspended in H2O were applied to a carbon film coated copper grid (400 square mesh, Electron Microscopy Sciences) and dried. The sample was stained with 10 μL 1% uranyl acetate during one minute. Excess stain was removed with a filter paper and subsequently applied to a Tecnai G^2 Spirit BioTWIN.

Compound: CC(C)C[C@@H](NC(=O)[C@H](Cc1c[nH]c2ccccc12)NC(=O)[C@@H](CC(C)C)NC(=O)[C@H](Cc1c[nH]c2ccccc12)NC(=O)[C@@H](CC(C)C)NC(=O)[C@H](Cc1c[nH]c2ccccc12)NC(=O)[C@H](CCCCN)NC(=O)[C@H](CCCCN)NC(=O)[C@H](CCCCN)NC(=O)[C@@H](N)CCCCN)C(=O)N[C@@H](Cc1c[nH]c2ccccc12)C(N)=O (racemic) [CD4, H-LK-LK-LK-LK-LW-DL-LW-DL-LW-DL-LW-NH2]
- solubility in water [1]: water soluble

Compound: CC(C)C[C@@H](NC(=O)[C@H](Cc1c[nH]c2ccccc12)NC(=O)[C@@H](CC(C)C)NC(=O)[C@H](Cc1c[nH]c2ccccc12)NC(=O)[C@@H](CC(C)C)NC(=O)[C@H](Cc1c[nH]c2ccccc12)NC(=O)[C@H](CCCCN)NC(=O)[C@@H](N)CCCCN)C(=O)N[C@@H](Cc1c[nH]c2ccccc12)C(N)=O (racemic) [CD2, H-LK-LK-LW-DL-LW-DL-LW-DL-LW-NH2]
- solubility in water [1]: water soluble

Compound: CC(C)C[C@@H](NC(=O)[C@H](Cc1c[nH]c2ccccc12)NC(=O)[C@@H](CC(C)C)NC(=O)[C@H](Cc1c[nH]c2ccccc12)NC(=O)[C@@H](CC(C)C)NC(=O)[C@H](Cc1c[nH]c2ccccc12)NC(=O)[C@H](CCCCN)NC(=O)[C@H](CCCCN)NC(=O)[C@@H](N)CCCCN)C(=O)N[C@@H](Cc1c[nH]c2ccccc12)C(N)=O (racemic) [CD3, H-LK-LK-LK-LW-DL-LW-DL-LW-DL-LW-NH2]
- solubility in water [1]: water soluble
- particle stability at increasing / physiological salt strength [2]: not stable
- particle stability in pure water [2]: stable

Compound: CC(C)C[C@@H](NC(=O)[C@H](Cc1c[nH]c2ccccc12)NC(=O)[C@@H](CC(C)C)NC(=O)[C@H](Cc1c[nH]c2ccccc12)NC(=O)[C@@H](CC(C)C)NC(=O)[C@H](Cc1c[nH]c2ccccc12)NC(=O)[C@@H](N)CCCCN)C(=O)N[C@@H](Cc1c[nH]c2ccccc12)C(N)=O (racemic) [CD1, H-LK-LW-DL-LW-DL-LW-DL-LW-NH2]
- solubility in water [1]: water soluble

Compound: Flutax-2
- Flutax-2 emission in the cytosol (CHO cells): could not be detected

Compound: CC(=O)NCCCC[C@H](NC(C)=O)C(=O)N[C@@H](CCCCNC(C)=O)C(=O)N[C@@H](CCCCNC(C)=O)C(=O)N[C@@H](Cc1c[nH]c2ccccc12)C(=O)N[C@H](CC(C)C)C(=O)N[C@@H](Cc1c[nH]c2ccccc12)C(=O)N[C@H](CC(C)C)C(=O)N[C@@H](Cc1c[nH]c2ccccc12)C(=O)N[C@H](CC(C)C)C(=O)N[C@@H](Cc1c[nH]c2ccccc12)C(N)=O (racemic) [CD3ac, Ac-LK(Ac)-LK(Ac)-LK(Ac)-LW-DL-LW-DL-LW-DL-LW-NH2]
- particle radius [3]: about 260 nm
- solubility in water [1]: insoluble
- solubility in organic solvents ([1]; EtOH, iPrOH, DMSO, DMF, MeCN): readily dissolves
- bead diameter ([4]; 307.5×10^−6 M CD3ac starting concentration, 10×10^−6 M RB, confocal fluorescence microscopy): 1.35 μm
- density of CD3ac precipitates (ρCD3ac) ([4]; from bead count and bead volume fraction): ≈ 1.35 g/cm^3
- thickness of the protein corona [5]: 9.0+/−2.1 nm
- average particle diameter ([5]; assembled in the absence of Tfn-AF568): 100 nm
- average particle diameter ([5]; assembled in the presence of Tfn-AF568, excluding corona): 51 nm
